# Test results published in PubChem BioAssay (NCI).
#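 Tested at 5 concentrations; 48 h exposure; 96-well plates; endpoints linearly interpolated, else capped at highest concentration. The concentration for 50% growth inhibition is given as GI50. TGI: concentration producing complete growth inhibition.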
# Key:
# Assay in all cases: growth of human tumour cells (NCI), 48 h
# [1] = system: RPMI-8226 leukemia
# [2] = system: K-562 leukemia
# [3] = system: SK-MEL-5 melanoma
# [4] = system: MCF7 breast
# [5] = system: UACC-62 melanoma
# [6] = system: NCI-H460 lung
# [7] = system: HCT-116 colon
# [8] = system: SF-539 CNS
# [9] = system: U251 CNS
# [10] = system: CAKI-1 renal
# [11] = system: OVCAR-4 ovarian
# [12] = system: 786-0 renal
# [13] = system: OVCAR-5 ovarian
# [14] = system: HOP-62 NSCLC
# [15] = system: ACHN renal
# [16] = system: SK-MEL-28 melanoma
# [17] = system: MOLT-4 leukemia
# [18] = system: SF-295 CNS
# [19] = system: MDA-MB-231 breast
# [20] = system: EKVX NSCLC
# [21] = system: SNB-19 CNS
# [22] = system: SF-268 CNS
# [23] = system: DU-145 prostate
# [24] = system: NCI/ADR-RES ovarian
# [25] = system: OVCAR-8 ovarian
# [26] = system: IGROV1 ovarian
# [27] = system: NCI-H226 lung
# [28] = system: LOX IMVI melanoma
# [29] = system: MALME-3M melanoma
# [30] = system: M14 melanoma
# [31] = system: MDA-MB-435
# [32] = system: T-47D breast
# [33] = system: HOP-92 NSCLC
# [34] = system: KM12 colon
# [35] = system: CCRF-CEM leukemia
# [36] = system: PC-3 prostate
# [37] = system: RXF 393 renal
# [38] = system: A549 NSCLC
# [39] = system: HT29 colon
# [40] = system: TK-10 renal
# [41] = system: BT-549 breast
# [42] = system: SN12C renal
# [43] = system: HS 578T breast
# [44] = system: A498 renal
# [45] = system: SK-OV-3 ovarian
# [46] = system: NCI-H23 lung
# [47] = system: SW-620 colon
# [48] = system: HCC-2998 colon
# [49] = system: UO-31 renal
# [50] = system: UACC-257 melanoma
# [51] = system: SK-MEL-2 melanoma
# [52] = system: SNB-75 CNS
# [53] = system: COLO 205 colon
# [54] = system: HCT-15 colon
# [55] = system: NCI-H522 lung
# [56] = system: HL-60(TB) leukemia
smiles,measurement,setting,value
O=C(/C=C/c1csc(Br)n1)NO,GI50,[1],2.64 µM
same,TGI,[1],18.8 µM
same,GI50,[2],2.61 µM
same,TGI,[2],15.4 µM
same,GI50,[3],1.82 µM
same,TGI,[3],3.5 µM
same,GI50,[4],3 µM
same,TGI,[4],16.7 µM
same,GI50,[5],1.25 µM
same,TGI,[5],3.2 µM
same,GI50,[6],2.81 µM
same,TGI,[6],41.5 µM
same,GI50,[7],1.83 µM
same,TGI,[7],4.51 µM
same,GI50,[8],3.11 µM
same,TGI,[8],14.8 µM
same,GI50,[9],1.9 µM
same,TGI,[9],4.09 µM
same,GI50,[10],2.35 µM
same,TGI,[10],7.22 µM
same,GI50,[11],6.3 µM
same,TGI,[11],> 100 µM
same,GI50,[12],3.38 µM
same,TGI,[12],34.7 µM
same,GI50,[13],2.25 µM
same,TGI,[13],> 100 µM
same,GI50,[14],2.76 µM
same,TGI,[14],11.5 µM
same,GI50,[15],2.36 µM
same,TGI,[15],6.99 µM
same,GI50,[16],3.46 µM
same,TGI,[16],> 100 µM
same,GI50,[17],2.3 µM
same,TGI,[17],10.2 µM
same,GI50,[18],2.51 µM
same,TGI,[18],6.35 µM
same,GI50,[19],3.51 µM
same,TGI,[19],21.2 µM
same,GI50,[20],4.23 µM
same,TGI,[20],> 100 µM
same,GI50,[21],3.82 µM
same,TGI,[21],88.4 µM
same,GI50,[22],3.22 µM
same,TGI,[22],9.29 µM
same,GI50,[23],3.16 µM
same,TGI,[23],23.1 µM
same,GI50,[24],1.57 µM
same,TGI,[24],8.36 µM
same,GI50,[25],2.19 µM
same,TGI,[25],8.33 µM
same,GI50,[26],2.06 µM
same,TGI,[26],5.25 µM
same,GI50,[27],5.22 µM
same,TGI,[27],20 µM
same,GI50,[28],1.31 µM
same,TGI,[28],2.69 µM
same,GI50,[29],1.41 µM
same,TGI,[29],8.29 µM
same,GI50,[30],3.3 µM
same,TGI,[30],17.7 µM
same,GI50,[31],2.88 µM
same,TGI,[31],15.3 µM
same,GI50,[32],2.03 µM
same,TGI,[32],5.63 µM
same,GI50,[33],1.3 µM
same,TGI,[33],3.95 µM
same,GI50,[34],3.61 µM
same,TGI,[34],39.5 µM
same,GI50,[35],2.73 µM
same,TGI,[35],> 100 µM
same,GI50,[36],3.17 µM
same,TGI,[36],17.6 µM
same,GI50,[37],1.43 µM
same,TGI,[37],3.65 µM
same,GI50,[38],2.45 µM
same,TGI,[38],8.4 µM
same,GI50,[39],2.31 µM
same,TGI,[39],> 100 µM
same,GI50,[40],1.41 µM
same,TGI,[40],6.18 µM
same,GI50,[41],3.84 µM
same,TGI,[41],16.5 µM
same,GI50,[42],3.84 µM
same,TGI,[42],> 100 µM
same,GI50,[43],2.05 µM
same,TGI,[43],8.66 µM
same,GI50,[44],1.34 µM
same,TGI,[44],3.21 µM
same,GI50,[45],1.77 µM
same,TGI,[45],5.09 µM
same,GI50,[46],3.01 µM
same,TGI,[46],10.5 µM
same,GI50,[47],1.89 µM
same,TGI,[47],5.52 µM
same,GI50,[48],3.29 µM
same,TGI,[48],11.6 µM
same,GI50,[49],1.7 µM
same,TGI,[49],4.16 µM
same,GI50,[50],1.31 µM
same,TGI,[50],4.91 µM
same,GI50,[51],2.62 µM
same,TGI,[51],7.26 µM
same,GI50,[52],1.83 µM
same,TGI,[52],21 µM
same,GI50,[53],1.75 µM
same,TGI,[53],3.36 µM
same,GI50,[54],3.17 µM
same,TGI,[54],> 100 µM
same,GI50,[55],2.48 µM
same,TGI,[55],11.2 µM
same,GI50,[56],2.51 µM
same,TGI,[56],6.58 µM
